Experimental data reported in PMC9364112, “A natural fusion of flavodiiron, rubredoxin, and rubredoxin oxidoreductase domains is a self-sufficient water-forming oxidase of Trichomonas vaginalis” (The Journal of Biological Chemistry, 2022).

What was measured:
Test in all cases: LC-MS quantification of bound flavin
Assay type in all cases: binding
TvFDPF2 = molecular target: T1, TvFDPF2 (Trichomonas vaginalis, UniProt A2EVX8); conditions: co-purified cofactor, poorly occupied
T1 construct: gene TVAG_049830; full length, 871 residues, C-terminal His6 (pET30a, E. coli BL21 Star DE3); aggregation-prone; poor FAD and FMN occupancy
T1 sequence (A2EVX8 1-871): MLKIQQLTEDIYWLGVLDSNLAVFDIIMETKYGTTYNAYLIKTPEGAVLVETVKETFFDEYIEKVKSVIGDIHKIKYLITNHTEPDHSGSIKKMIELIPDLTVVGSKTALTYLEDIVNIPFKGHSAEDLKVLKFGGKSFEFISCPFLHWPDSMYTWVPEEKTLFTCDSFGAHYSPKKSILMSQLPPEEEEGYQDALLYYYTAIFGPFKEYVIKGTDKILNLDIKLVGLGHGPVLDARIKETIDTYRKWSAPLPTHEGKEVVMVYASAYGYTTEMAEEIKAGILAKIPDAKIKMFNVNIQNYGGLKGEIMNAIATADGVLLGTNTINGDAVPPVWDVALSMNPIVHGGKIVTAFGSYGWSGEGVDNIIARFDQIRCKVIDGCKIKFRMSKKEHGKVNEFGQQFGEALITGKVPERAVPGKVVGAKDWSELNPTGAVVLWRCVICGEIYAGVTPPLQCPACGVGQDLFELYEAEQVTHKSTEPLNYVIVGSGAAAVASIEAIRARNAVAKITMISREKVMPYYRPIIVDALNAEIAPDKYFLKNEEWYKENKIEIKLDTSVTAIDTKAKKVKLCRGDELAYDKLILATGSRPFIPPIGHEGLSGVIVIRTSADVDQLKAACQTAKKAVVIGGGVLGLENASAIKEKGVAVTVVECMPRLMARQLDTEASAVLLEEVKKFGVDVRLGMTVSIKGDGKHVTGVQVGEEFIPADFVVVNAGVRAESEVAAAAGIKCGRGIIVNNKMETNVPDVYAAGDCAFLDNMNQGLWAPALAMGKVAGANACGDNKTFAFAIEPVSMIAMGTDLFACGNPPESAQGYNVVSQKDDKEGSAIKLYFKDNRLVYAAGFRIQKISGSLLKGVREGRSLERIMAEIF
Source text: LC-MS quantification of bound flavin on TvFDPF2

TvFDPF1 = molecular target: T2, TvFDPF1 (Trichomonas vaginalis, UniProt A2EP06); conditions: co-purified cofactor
T2 construct: gene TVAG_263800; full length, 871 residues, C-terminal His6 (pET30a, E. coli BL21 Star DE3); 272 kDa by gel filtration
T2 sequence (A2EP06 1-871): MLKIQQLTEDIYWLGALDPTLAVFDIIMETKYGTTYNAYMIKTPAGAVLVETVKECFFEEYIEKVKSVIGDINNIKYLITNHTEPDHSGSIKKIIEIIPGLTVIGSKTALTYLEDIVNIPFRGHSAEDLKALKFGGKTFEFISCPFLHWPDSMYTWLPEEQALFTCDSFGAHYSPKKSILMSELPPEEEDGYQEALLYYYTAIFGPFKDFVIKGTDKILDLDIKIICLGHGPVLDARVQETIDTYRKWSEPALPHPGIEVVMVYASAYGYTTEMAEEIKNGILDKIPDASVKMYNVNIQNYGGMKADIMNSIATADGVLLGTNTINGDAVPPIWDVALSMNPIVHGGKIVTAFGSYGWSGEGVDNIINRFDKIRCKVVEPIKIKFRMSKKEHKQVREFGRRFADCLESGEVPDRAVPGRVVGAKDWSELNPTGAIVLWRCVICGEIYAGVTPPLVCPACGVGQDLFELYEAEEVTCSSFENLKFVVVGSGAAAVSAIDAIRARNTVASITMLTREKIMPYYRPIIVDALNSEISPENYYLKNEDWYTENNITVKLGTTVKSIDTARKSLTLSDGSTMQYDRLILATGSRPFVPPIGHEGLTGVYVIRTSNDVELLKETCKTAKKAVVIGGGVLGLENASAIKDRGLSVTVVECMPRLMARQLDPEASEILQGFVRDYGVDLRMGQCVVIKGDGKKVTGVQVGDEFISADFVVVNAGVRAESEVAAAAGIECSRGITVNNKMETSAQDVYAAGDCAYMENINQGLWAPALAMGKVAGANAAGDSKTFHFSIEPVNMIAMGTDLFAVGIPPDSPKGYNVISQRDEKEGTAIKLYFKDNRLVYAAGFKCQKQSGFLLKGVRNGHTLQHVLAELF
Source text: LC-MS quantification of bound flavin on TvFDPF1

TvFDPF3 (holoTvFDPF3) = molecular target: T3, TvFDPF3 (holoTvFDPF3) (Trichomonas vaginalis, UniProt A2E972); conditions: co-purified cofactor, NROR domain
T3 construct: gene TVAG_121610; full length, 871 residues, C-terminal His6 (pET30a, E. coli BL21 Star DE3), ~100 kDa on SDS-PAGE; FDP-core head-to-tail dimer; holo preparation with full FAD/FMN
T3 sequence (A2E972 1-871): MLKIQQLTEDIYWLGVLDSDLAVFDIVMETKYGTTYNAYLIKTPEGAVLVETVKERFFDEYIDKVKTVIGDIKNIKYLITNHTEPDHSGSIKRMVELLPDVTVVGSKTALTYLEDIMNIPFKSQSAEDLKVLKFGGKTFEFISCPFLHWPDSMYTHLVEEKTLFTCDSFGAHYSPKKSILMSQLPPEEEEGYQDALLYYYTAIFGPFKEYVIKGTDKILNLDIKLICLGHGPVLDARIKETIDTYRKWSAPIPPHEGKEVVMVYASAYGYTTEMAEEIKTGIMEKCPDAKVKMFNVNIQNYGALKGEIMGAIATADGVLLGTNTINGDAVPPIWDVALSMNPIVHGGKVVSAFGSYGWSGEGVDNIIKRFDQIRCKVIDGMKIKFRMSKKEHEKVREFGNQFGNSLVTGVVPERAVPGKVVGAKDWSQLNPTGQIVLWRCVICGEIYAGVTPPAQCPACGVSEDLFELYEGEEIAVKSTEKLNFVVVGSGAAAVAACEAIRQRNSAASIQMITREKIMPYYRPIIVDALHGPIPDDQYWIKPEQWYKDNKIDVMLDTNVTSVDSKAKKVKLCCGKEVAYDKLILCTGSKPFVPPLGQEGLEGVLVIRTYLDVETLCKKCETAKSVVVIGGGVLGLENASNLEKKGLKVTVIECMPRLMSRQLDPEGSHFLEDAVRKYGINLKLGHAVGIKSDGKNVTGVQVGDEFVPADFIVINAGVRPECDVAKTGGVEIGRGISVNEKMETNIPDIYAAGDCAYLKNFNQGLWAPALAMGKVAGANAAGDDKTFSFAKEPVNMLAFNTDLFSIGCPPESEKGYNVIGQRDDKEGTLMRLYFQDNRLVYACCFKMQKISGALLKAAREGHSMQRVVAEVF
Source text: LC-MS quantification of bound flavin on TvFDPF3 (holoTvFDPF3)

Q: With Cc1cc2nc3c(=O)[nH]c(=O)nc-3n(C[C@H](O)[C@H](O)[C@H](O)COP(=O)(O)OP(=O)(O)OC[C@H]3O[C@@H](n4cnc5c(N)ncnc54)[C@H](O)[C@@H]3O)c2cc1C [FAD] as the molecule, how does the “FAD per protein monomer” value (TvFDPF2) read?
A: The value was 0.32 ± 0.05 mol per mol monomer.

Q: What about the “FAD per protein monomer” value (TvFDPF1) of the same molecule?
A: Its value is 1.02 ± 0.05 mol per mol monomer.

Q: And the “FAD per protein monomer” value (TvFDPF3 (holoTvFDPF3))?
A: Its value is 0.94 ± 0.09 mol per mol monomer.
